Source: patent publication US10987403B2, “Cyclodextrin-Nle3-A(1-7) compositions and their use” (University of Southern California, priority 2017, dated 2021)
Where no end group is shown, it is not given here. [ ]: non-standard residue; d: D form. Nle = CCCC[C@H](N)C(=O)O

Experiments:
[1] = system: gemcitabine-treated mice; assay: White blood cell counts in gemcitabine-treated mice (oral efficacy study); type: in vivo, C57Bl/6 mice; details: subcutaneous, 0.3 mg/kg daily for 21 days after 160 mg/kg gemcitabine; FIG. 1
Experimental: (§1) The female C57Bl/6 mice (7 per group), 6-8 weeks old, were treated with the formulations described above daily starting 1 day after intravenous injection with chemotherapy, 160 mg/kg gemcitabine. On days 1, 3, 7, 15 and 21 after chemotherapy administration, blood was taken under anesthesia from the saphenous vein to assess white blood cell, and platelet numbers. On day 22, the mice were euthanized and bone marrow collected to assess the number of colony forming units.
(§2) The mice were bled from the saphenous vein. The mice were anesthetized by placing the nose of the animals in a 50 ml conical tube containing cotton balls soaked with isoflurane (an inhaled anesthesia). […]
(§3) Twenty μl of blood was mixed with 180 μl of RBC lysing solution (0.83% NH4Cl, 10 mM EDTA, 0.5% NaHCO3). […] This mixture was vortexed and the number of WBC was evaluated by hematocytometer under light microscopy and the number of platelets was evaluated by hematocytometer under phase contrast microscopy.
(§4) In order to assess the oral efficacy, gemcitabine-treated mice were treated daily for 21 days with five treatments: 1) SQ dosed saline, 2) SQ dosed A(1-7) at 0.3 mg/kg, 3) SQ dosed NorLeu3-A(1-7) at 0.3 mg/kg, 4) orally dosed β-CD formulated A(1-7) at 0.3 mg/kg, or 5) orally dosed β-CD formulated NorLeu-A(1-7)) at 0.3 mg/kg. The effects of these treatments on peripheral blood counts were assessed.

[2] = system: gemcitabine-treated mice; assay: Platelet counts in gemcitabine-treated mice (oral efficacy study); type: in vivo, C57Bl/6 mice; details: subcutaneous, 0.3 mg/kg daily for 21 days after 160 mg/kg gemcitabine; FIG. 3
Experimental: as §1, §2, §3, §4

| Substance | number of circulating WBC [1] | circulating platelet numbers [2] |
| --- | --- | --- |
| Asp-Arg-Nle-Tyr-Ile-His-Pro (DR[Nle]YIHP) [NorLeu3-A(1-7), dosed subcutaneously as comparator] | increased the number of circulating WBC | did not circulating platelet numbers |
| angiotensin (1-7) (DRVYIHP; Angiotensin 1-7; UniProt P01019 25-31, looked up, fragment) [A(1-7), Investigational Mas agonist peptide] | increased the number of circulating WBC | – |
